# According to patent US7919459B2, “Use of C5a receptor antagonist in the treatment of fibrosis” (Promics Pty Limited, priority 2002, dated 2011):
# Several values for one entry are separate records, joined by “and”; a condition that tells them apart may be missing. Equal values may be shown once.
# Legend:
# [1] = tested on: bleomycin-instilled male Wistar rats; test: Bleomycin-induced pulmonary fibrosis in rats: lung and body weight, histology, collagen deposition; conditions: for Body weight / Left lung weight / Ratio (lung weight to body weight): 7-9 days after intra-tracheal bleomycin, PMX53 10 mg/kg p.o. daily; for collagen deposition in lung: acute lung inflammation
# Protocol: Male Wistar rats, 6 weeks of age, were used. The rats were divided into 5 groups:
# Group 1: bleomycin instillation only (n=9)
# Group 2: saline instillation only (n=3)
# Group 5: Untreated rats maintained in the same environment as the other groups (n=3).
# Drug-treated rats were given drug for 3 days before bleomycin administration.
# One intra-tracheal instillation of bleomycin at a dose of 0.5 mg/100 g (0.7 U/100 g) in 200 μl of saline was performed on Day 1, as described by Taylor et al., (2002). Rats were anaesthetized by inhalation of 5% or less halothane via a vaporizer. After a local spray of Xylocalne to prevent airway spasm, the rats were intubated and a slow injection of bleomycin or sline control was completed. The rats were then rotated gently for about 1-2 minutes to allow the solution to diffuse evenly into both lungs (Christensen et al 2000). Rats were kept in the fume cupboard until totally recovered, and then monitored for up to 18 days. Body weight, food and water intake, and respiration were monitored daily.
# Respiration was elevated as follows: Score 0, normal respiration; Score 1, increased rate of breathing; and Score 2, mouth open respiration. Rats were euthanased before the end of the experimental period, if they consistently lost more than 10% bodyweight for 48 hours, had Score 2 respiration or had Score 1 respiration for 48 hours.
# At the end of this period the rats were killed by exsanguination under anaesthesia, so that the lungs were clear of blood. For each rat, the left lung was immediately frozen in liquid nitrogen and stored at −20° C. for quantitative collagen analysis using hydroxyproline assay. The right lung was fully inflated and fixed with 10% formulated formalin by airway gravity fixation at a pressure of 30 cm water for 1 minute. Haematoxylin and eosin (H&E) and Picro Sirius Red (PR) staining for collagen were performed to assess collagen deposition in the lung. For quantitation of collagen stained with PR, polarized light images were converted to grey scale, and the total number of white pixels (specific for collagen) per image was determined as a percentage of the total pixel area. The procedure was applied to a total of four fields in the alveolar area and two fields in the peribronchial area and blood vessels per sample (Wang et al, 2000). The largest lobe of the right lung (from 4 lobes) in each rat was chosen. The data was analysed using the program “Sion Image”.
# Data were compiled as the means±SE in the study. Tests of significance were obtained by ANOVA followed by Student-Newman-Keuls post analysis.
# [2] = tested on: bleomycin-instilled male Wistar rats; test: Hydroxyproline assay of lung, bleomycin-induced pulmonary fibrosis; assay type: in vivo, rat; conditions: 18 days after bleomycin instillation
# Protocol: (§1) The data was analysed using the program “Sion Image”.
# Hydroxyproline assay was performed by the method of Christensen et al 1 (2000). Lung tissue was excised, trimmed free of surrounding conducting airways, and homogenized in 2 mls saline. A 1 ml aliquot of lung homogenate was hydrolysed in 6N HCl (0.5 ml of homogenate and 0.5 ml of 12N HCl) at 110° C. for 12 hours; 50 μl aliquots were added to 1 ml of 14% chloramine T, 10% n-propanol, and 0.5M sodium acetate, pH 6.0. After 20 min at 22° C., 1 ml of Ehrlich's solution (1M p-dimethylaminobenzaldehyde in 70% n-propanol and 20% perchloric acid) was added and allowed to incubate at 65° C. for 15 min. Absorbance was measured at 550 nm, and the amount of hydroxyproline was determined against a standard curve generated with the use of known concentrations of reagent-grade hydroxyproline.
# [3] = tested on: bleomycin-instilled male Wistar rats; test: Picro Sirius Red (PR) staining for collagen in lung, bleomycin-induced pulmonary fibrosis; assay type: in vivo, rat; conditions: 18 days after bleomycin, individual rats, n = 3-4
# Protocol: as §1
# [4] = tested on: L-NAME-treated male Wistar rats; test: Isolated Langendorff heart preparation (diastolic stiffness), L-NAME rats; assay type: in vivo, rat
# Protocol: The Langendorff isolated heart preparation was used to determine the diastolic stiffness of the left ventricles ex vivo. […] To assess myocardial stiffness in isolated Langendorff hearts, stress (σ, dyne/cm2) and tangent elastic modulus (E, dyne/cm2) for the […] equator of the left ventricle were calculated by assuming spherical geometry of the ventricle and considering the […] equatorial region as representative of the remaining myocardium: […] Myocardial diastolic stiffness is calculated as the diastolic stiffness constant (k, dimensionless), the slope of the linear relation between E and σ (Mirsky and […], 1973). To assess contractile function, maximal +dP/dt was calculated at a diastolic pressure of 5 mmHg. […] The negative log EC50 of the increase in either force of contraction in mN or rate of contraction in beats/min was determined from the concentration giving half-maximal responses in individual concentration-response curves. Renal function results were corrected for kidney wet weight measured at the end of the experiment.
# [5] = tested on: L-NAME-treated male Wistar rats; test: Collagen distribution and inflammatory cells in heart and kidney sections (picrosirius red image analysis), L-NAME rats; assay type: in vivo, rat
# Protocol: Collagen deposition was measured by image analysis using laser confocal microscopy of picrosirius red-stained cardiac slices, as described below. […] The stained sections were analyzed with an Image Pro plus analysis program using an Olympus BH2 microscope, with results expressed as a percentage of red area in each screen. At least 4 areas were examine in each heart.
# [6] = tested on: L-NAME-treated male Wistar rats; test: L-NAME-induced hypertension/cardiac fibrosis in rats: intake, growth, tail-cuff blood pressure, organ weights; assay type: in vivo, rat
# Protocol: Male Wistar rats (8 weeks old) were obtained from the Central Animal Breeding House of The University of Queensland.
# This agent was administered at a dosage of 1 mg/kg/day orally for 4 days before rats were additionally treated with nitro-L-arginine methyl ester (L-NAME) for 4 weeks, i.e. a total duration of treatment of antagonist of 32 days. L-NAME administration produces hypertension and cardiac remodelling as a result of inhibition of the production of nitric oxide (NO).
# L-NAME was administered at a concentration of 400 mg/l in the drinking water for 4 weeks to give a mean daily intake of 18.7±0.4 mg L-NAME (41.4±0.8 mg/kg mean body weight). Body weight and food and water intakes were measured daily.
# Systolic blood pressure was measured in selected unanaesthetised rats, using a tail-cuff method.
# [7] = tested on: L-NAME-treated male Wistar rats; test: Echocardiographic analysis of cardiac function, L-NAME rats; assay type: in vivo, rat
# Protocol: After 4 weeks of L-NAME treatment, heart function was determined in vivo by echocardiography and in vitro using the isolated Langendorff heart preparation described below. Collagen deposition was measured by image analysis using laser confocal microscopy of picrosirius red-stained cardiac slices, as described below.
# Cardiac function was estimated in vivo using echocardiography, using conventional methods.
# [8] = tested on: streptozotocin-induced diabetes in rats; conditions: streptozotocin-induced diabetes in rats (Miric G, et al., 2001); cited from earlier work
# [9] = L-NAME rats + PMX53 1 mg/kg/day orally
# [10] = L-NAME rats, echocardiographic M-mode
molecule,measurement,setting,value
Bleomycin [reference compound],Body weight,[1],226 + 8.083 g
same,Left lung weight,[1],1.004 ± 0.04 g
same,Ratio (lung weight to body weight),[1],4.47 ± 0.46 ×10^−3
same,lung/body weight ratio,[1]; 18 days after bleomycin instillation,did not show a significant difference
same,collagen deposition in lung,[1]; 7-9 days after bleomycin,significant increase
same,hydroxyproline levels in the rat lungs,[2],significantly increased
same,PR staining,[3],0.01 % of the total pixel area and 0.21 % of the total pixel area and 0.78 % of the total pixel area and 1.73 % of the total pixel area
AcF-[OPdChaWR] [PMX53],developed pressure and contractility,[4]; isolated heart,without altering
same,diastolic stiffness constant,[4]; left ventricle ex vivo,prevented
same,glomerular collagen concentrations in the kidneys,[5]; L-NAME rats,normalized
same,"collagen deposition restricted to % of L-NAME only, kidney interstitium",[5]; [9],30%
same,"collagen deposition restricted to % of L-NAME only, right ventricle interstitial",[5]; [9],44%
same,"collagen deposition restricted to % of L-NAME only, right ventricle perivascular",[5]; [9],37%
same,"collagen increase as % of the increase observed in rats treated with L-NAME only, left ventricular interstitial",[5]; [9],23%
same,"collagen increase as % of the increase observed in rats treated with L-NAME only, left ventricular perivascular",[5]; [9],43%
same,inflammatory cell infiltration into left or right ventricles,[5]; following L-NAME treatment,totally prevented
same,Body weight,[1],228 + 7.583 g
same,Left lung weight,[1],0.974 ± 0.132 g
same,Ratio (lung weight to body weight),[1],4.25 ± 1.07 ×10^−3
same,increase in systolic blood pressure of L-NAME rats,[6]; L-NAME + antagonist versus L-NAME only,16 mmHg
same,left ventricular wet weight,[6]; L-NAME rats,increased
same,blood pressure,[6]; control rats,non-significant increase
same,systolic blood pressure,"[6]; tail-cuff, unanaesthetised rats, day 32, L-NAME rats with or without PMX53 1 mg/kg/day orally",176±3 mmHg
same,E/A ratio (early to atrial mitral valve inflow rates),[7]; L-NAME rats,significantly normalised
same,cardiac output,[7]; L-NAME rats,significantly normalised
same,diastolic volume,[7]; L-NAME rats,significantly normalised
same,left ventricular internal diameter in diastole,[7]; [10],normalised
same,left ventricular wall thickness in diastole,[7]; [10],normalised
same,any parameter measured by echocardiographic analysis,[7]; control rats,did not significantly alter
"CC(=O)N[C@@H](Cc1ccccc1)C(=O)N[C@H]1CCCNC(=O)[C@H](CCCNC(=N)N)NC(=O)[C@H](Cc2c[nH]c3ccccc23)NC(=O)[C@@H](CC2CCCCC2)NC(=O)[C@@H]2CCCN2C1=O [PMX53, AcF-[OPdChaWR]]","lung histology (patchy lesions), treated versus non-treated","[1]; 7-9 days after bleomycin, H&E, n=4 per group",no significant difference
same,collagen deposition in lung,[1]; 7-9 days after bleomycin,no significant difference
same,toxic lung inflammation induced by bleomycin,[1]; acute stage,failure
same,hydroxyproline levels in the rat lungs,[2],significantly reduced
same,PR staining,[3]; listed as Bleo + PMX53,1.43 % of the total pixel area and 0.06 % of the total pixel area and 0.01 % of the total pixel area and 0.77 % of the total pixel area
CC(=O)S[C@@H]1CC2=CC(=O)CC[C@]2(C)[C@H]2CC[C@@]3(C)[C@@H](CC[C@@]34CCC(=O)O4)[C@H]12 [spironolactone],cardiac fibrosis and increase in cardiac stiffness,[8],can prevent and partially reverse
"Cc1ccc(=O)n(-c2ccccc2)c1 [pirfenidone, 5-methyl-1-phenyl-2-(1H)-pyridone]",cardiac fibrosis and increase in cardiac stiffness,[8],can prevent and partially reverse
